# In patent US11926628B2 (Gilead Sciences, Inc., priority 2021, dated 2024):
# Assays:
# human DGKα = human DGKα (Homo sapiens (Human), UniProt P23743); assay: DGKα Biochemical Activity Assay (ADP-Glo); settings: recombinant DGKα 1 nM, 100 μM ATP, 18:1 DAG/POPS/octylglucoside micelles, 1 hour at 25° C.; geometric mean; read-out: HTBS DGKa 1X ATP KM IC50
# How it was run: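 Recombinant DGKα (1 nM final) was preincubated with compound for 15 min, then reacted for 1 h at 25 °C with 100 μM ATP and octylglucoside micelles of 0.85 mM 18:1 DAG and 6.75 mM POPS in pH 7.2 MOPS with 5 mM MgCl2. ADP formed was read by ADP-Glo luminescence. IC50 came from four-parameter fits normalized to DMSO and 50 μM CU3, and values were geometric means.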
# [1] = test system: Jurkat NFκB-luciferase cells; assay: Jurkat NFκB-Luciferase Assay; format: cell-based; settings: Homo sapiens; Jurkat NFκB-luciferase cells activated with anti-CD3 antibody (OKT3), 2.5 hrs at 37° C.; geometric mean; read-out: DGK NFKb Luciferase EC50
# How it was run: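 Jurkat NFκB-luciferase reporter cells stimulated on plate-bound anti-CD3 (5 ug/ml coating) with compound, 2.5 hrs at 37° C then 30 min at 25° C; luminescence read with One-Glo Ex. Normalized to DMSO (basal) and 1 micromolar compound (maximum) controls; EC50 from four-parameter fit, geometric mean across experiments.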
# Sequence of human DGKα (P23743 whole entry): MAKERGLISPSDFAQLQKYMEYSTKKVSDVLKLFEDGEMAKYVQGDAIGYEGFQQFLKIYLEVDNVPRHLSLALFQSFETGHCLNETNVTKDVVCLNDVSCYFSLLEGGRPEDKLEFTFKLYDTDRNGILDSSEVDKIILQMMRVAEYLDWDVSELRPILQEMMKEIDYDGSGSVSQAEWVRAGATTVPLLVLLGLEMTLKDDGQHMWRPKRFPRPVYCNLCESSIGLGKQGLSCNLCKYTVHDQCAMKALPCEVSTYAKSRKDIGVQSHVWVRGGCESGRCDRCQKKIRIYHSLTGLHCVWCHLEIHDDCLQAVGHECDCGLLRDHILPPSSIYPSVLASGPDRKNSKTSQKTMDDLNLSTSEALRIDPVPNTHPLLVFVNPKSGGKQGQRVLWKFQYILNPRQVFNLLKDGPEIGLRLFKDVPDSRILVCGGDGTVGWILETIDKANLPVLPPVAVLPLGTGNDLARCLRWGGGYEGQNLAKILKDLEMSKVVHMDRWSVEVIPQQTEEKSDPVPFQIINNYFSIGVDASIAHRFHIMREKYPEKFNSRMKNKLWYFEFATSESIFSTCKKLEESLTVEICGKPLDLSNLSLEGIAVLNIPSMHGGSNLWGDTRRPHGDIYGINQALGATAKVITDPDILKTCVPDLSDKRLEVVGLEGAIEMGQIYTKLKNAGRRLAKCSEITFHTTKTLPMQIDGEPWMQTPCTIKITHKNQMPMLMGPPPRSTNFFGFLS
Structure (SMILES),IC50 (human DGKα),EC50 [1]
"Cc1nnc2nc(N3CCCCc4c(C#CC5CC5)cccc43)c3c(F)cncc3n12 [Example 68, 5-(6-(cyclopropylethynyl)-2,3,4,5-tetrahydro-1H-benzo[b]azepin-1-yl)-6-fluoro-1-methylpyrido[4,3-e][1,2,4]triazolo[4,3-a]pyrimidine]",7.67 nM,1.19 nM
"COc1ccc2c(N(C)c3cccc(-c4ccc(C(F)F)cc4)c3)nc3nncn3c2n1 [Example 130, N-(4′-(difluoromethyl)-[1,1′-biphenyl]-3-yl)-2-methoxy-N-methylpyrido[3,2-e][1,2,4]triazolo[4,3-a]pyrimidin-5-amine]",55 nM,2.52 nM
CCN(c1cc(F)cc(-c2ccc(N3CC4(CC4)CS3(=O)=O)nc2)c1)c1nc2nnnn2c2cc(Cl)ccc12 [Example 7],117 nM,7.41 nM
"Cc1nnc2nc(N3CCCc4c(C#CC(C)(C)C(F)(F)F)cccc43)c3cc(F)cnc3n12 [Example 102, 3-fluoro-9-methyl-5-(5-(4,4,4-trifluoro-3,3-dimethylbut-1-yn-1-yl)-3,4-dihydroquinolin-1(2H)-yl)pyrido[3,2-e][1,2,4]triazolo[4,3-a]pyrimidine]",21.4 nM,1.8 nM
"Cc1nnc2nc(N3CCCc4c(C#CC(C)(C)C#N)cccc43)c3cc(F)cnc3n12 [Example 144, 4-(1-(3-fluoro-9-methylpyrido[3,2-e][1,2,4]triazolo[4,3-a]pyrimidin-5-yl)-1,2,3,4-tetrahydroquinolin-5-yl)-2,2-dimethylbut-3-ynenitrile]",5.08 nM,4.67 nM
CN(c1cc(F)cc(C#CC2(C(F)(F)F)CC2)c1)c1nc2nnnn2c2ccc(F)cc12 [Example 16],22.4 nM,3.24 nM
CN(c1cccc(C#CC(C)(C)C)c1)c1nc2nncn2c2ncc(F)cc12 [Example 152],32 nM,3.18 nM
"CN(c1cccc(-c2ccc(N3CCCS3(=O)=O)cc2)c1)c1nc2nnnn2c2cc(Cl)ccc12 [Example 5, 2-(3′-((8-chlorotetrazolo[1,5-a]quinazolin-5-yl)(methyl)amino)-[1,1′-biphenyl]-4-yl)isothiazolidine 1,1-dioxide]",28.4 nM,4.2 nM
"CC(C)(C)C#Cc1cc(F)cc(N(CC(F)F)c2nc3nncn3c3cncc(F)c23)c1 [Example 44, N-(2,2-difluoroethyl)-N-(3-(3,3-dimethylbut-1-yn-1-yl)-5-fluorophenyl)-6-fluoropyrido[4,3-e][1,2,4]triazolo[4,3-a]pyrimidin-5-amine]",32.7 nM,1.93 nM
"Fc1cncc2c1c(N(CC(F)F)c1ccnc(C#CC3(C(F)(F)F)CC3)c1)nc1nncn12 [Example 55, N-(2,2-difluoroethyl)-6-fluoro-N-(2-((1-(trifluoromethyl)cyclopropyl)ethynyl)pyridin-4-yl)pyrido[4,3-e][1,2,4]triazolo[4,3-a]pyrimidin-5-amine]",23.3 nM,28.1 nM
"CN(c1cccc(C#CC2(C(F)(F)F)CC2)c1)c1nc2nncn2c2nc(N)ccc12 [Example 121, N5-methyl-N5-(3-((1-(trifluoromethyl)cyclopropyl)ethynyl)phenyl)pyrido[3,2-e][1,2,4]triazolo[4,3-a]pyrimidine-2,5-diamine]",46.2 nM,6.93 nM
"Cc1nnc2nc(N3CCCc4c(C#CC5(C(C)(F)F)CC5)cncc43)c3c(F)cncc3n12 [Example 34, 5-(5-((1-(1,1-difluoroethyl)cyclopropyl)ethynyl)-3,4-dihydro-1,7-naphthyridin-1(2H)-yl)-6-fluoro-1-methylpyrido[4,3-e][1,2,4]triazolo[4,3-a]pyrimidine]",42.8 nM,3.34 nM
"CN(c1cccc(C#CC(C)(C)O)c1)c1nc2nnnn2c2cc(Cl)ccc12 [Example 10, 4-(3-((8-chlorotetrazolo[1,5-a]quinazolin-5-yl)(methyl)amino)phenyl)-2-methylbut-3-yn-2-ol]",93.1 nM,8.66 nM
"Cc1nnc2nc(N3CCCc4c(C#CC5(C(F)F)CC5)cccc43)c3cc(F)cnc3n12 [Example 100, 5-(5-((1-(difluoromethyl)cyclopropyl)ethynyl)-3,4-dihydroquinolin-1(2H)-yl)-3-fluoro-9-methylpyrido[3,2-e][1,2,4]triazolo[4,3-a]pyrimidine]",7.93 nM,2.26 nM
"Cc1nnc2nc(N(CC(F)F)c3ccnc(C#CC(C)(C)O)c3)c3c(F)cncc3n12 [Example 52, 4-(4-((2,2-difluoroethyl)(6-fluoro-1-methylpyrido[4,3-e][1,2,4]triazolo[4,3-a]pyrimidin-5-yl)amino)pyridin-2-yl)-2-methylbut-3-yn-2-ol]",204 nM,1000 nM
"CC(C)(O)C#Cc1cc(F)cc(N(CC(F)F)c2nc3nncn3c3cccnc23)c1 [Example 19, 4-(3-((2,2-difluoroethyl)(pyrido[2,3-e][1,2,4]triazolo[4,3-a]pyrimidin-5-yl)amino)-5-fluorophenyl)-2-methylbut-3-yn-2-ol]",67.6 nM,47.7 nM
"Cc1nnc2nc(N3CCCCc4c(C#CC5(C(C)(F)F)CC5)cccc43)c3c(F)cncc3n12 [Example 65, 5-(6-((1-(1,1-difluoroethyl)cyclopropyl)ethynyl)-2,3,4,5-tetrahydro-1H-benzo[b]azepin-1-yl)-6-fluoro-1-methylpyrido[4,3-e][1,2,4]triazolo[4,3-a]pyrimidine]",22.7 nM,0.337 nM
"CC1(C#Cc2cccc3c2CCCN3c2nc3nncn3c3cncc(F)c23)CC1 [Example 86, 10-fluoro-8-[5-[2-(1-methylcyclopropyl)ethynyl]-3,4-dihydro-2H-quinolin-1-yl]-2,4,5,7,12-pentazatricyclo[7.4.0.02,6]trideca-1(13),3,5,7,9,11-hexaene]",3.39 nM,0.518 nM
"CCN(c1cc(F)cc(C#CC2(C(F)(F)F)CC2)c1)c1nc2nncn2c2cncc(F)c12 [Example 90, N-ethyl-10-fluoro-N-[3-fluoro-5-[2-[1-(trifluoromethyl)cyclopropyl]ethynyl]phenyl]-2,4,5,7,12-pentazatricyclo[7.4.0.02,6]trideca-1(13),3,5,7,9,11-hexaen-8-amine]",12 nM,0.715 nM
"Cc1nnc2nc(N3CCCCc4c(C#CC(C)(C)O)cccc43)c3c(F)cncc3n12 [Example 66, 4-(1-(6-fluoro-1-methylpyrido[4,3-e][1,2,4]triazolo[4,3-a]pyrimidin-5-yl)-2,3,4,5-tetrahydro-1H-benzo[b]azepin-6-yl)-2-methylbut-3-yn-2-ol]",6.14 nM,15.9 nM
"Cc1nnc2nc(N3CCCc4c(C#CC(C)(C)O)cccc43)c3c(F)cncc3n12 [Example 28, 4-(1-(6-fluoro-1-methylpyrido[4,3-e][1,2,4]triazolo[4,3-a]pyrimidin-5-yl)-1,2,3,4-tetrahydroquinolin-5-yl)-2-methylbut-3-yn-2-ol]",11.9 nM,33.6 nM
"Cc1nnc2nc(N3CCOCc4c(C#CC5(C(C)(F)F)CC5)cccc43)c3c(F)cncc3n12 [Example 94, 6-((1-(1,1-difluoroethyl)cyclopropyl)ethynyl)-1-(6-fluoro-1-methylpyrido[4,3-e][1,2,4]triazolo[4,3-a]pyrimidin-5-yl)-1,2,3,5-tetrahydrobenzo[e][1,4]oxazepine]",25.1 nM,3.39 nM
"FC(F)(F)C1(C#Cc2cccc3c2CCCN3c2nc3nncn3c3cccnc23)CC1 [Example 25, 8-[5-[2-[1-(trifluoromethyl)cyclopropyl]ethynyl]-3,4-dihydro-2H-quinolin-1-yl]-2,4,5,7,10-pentazatricyclo[7.4.0.02,6]trideca-1(13),3,5,7,9,11-hexaene]",22.6 nM,3.08 nM
"Cc1nnc2nc(N3CCCc4c(C#CC(C)(C)C#N)cccc43)c3c(F)cncc3n12 [Example 97, 4-(1-(6-fluoro-1-methylpyrido[4,3-e][1,2,4]triazolo[4,3-a]pyrimidin-5-yl)-1,2,3,4-tetrahydroquinolin-5-yl)-2,2-dimethylbut-3-ynenitrile]",4.65 nM,4.1 nM
"Cc1nnc2nc(N3CCCc4c(C#CC(C)(C)O)cccc43)c3cc(F)cnc3n12 [Example 98, 4-(1-(3-fluoro-9-methylpyrido[3,2-e][1,2,4]triazolo[4,3-a]pyrimidin-5-yl)-1,2,3,4-tetrahydroquinolin-5-yl)-2-methylbut-3-yn-2-ol]",49 nM,26.2 nM
"CN(c1cccc(-c2ccc(C(F)F)cc2)c1)c1nc2nncn2c2nc(N)ccc12 [Example 131, N5-(4′-(difluoromethyl)-[1,1′-biphenyl]-3-yl)-N5-methylpyrido[3,2-e][1,2,4]triazolo[4,3-a]pyrimidine-2,5-diamine]",11.5 nM,7.69 nM
"CN(c1cccc(C#CC(C)(C)O)c1)c1nc2nccn2c2cc(Cl)ccc12 [Example 1, 4-(3-((8-chloroimidazo[1,2-a]quinazolin-5-yl)(methyl)amino)phenyl)-2-methylbut-3-yn-2-ol]",165 nM,14 nM
"CN(c1cccc(C#CC(C)(C)C)c1)c1nc2nncn2c2nc(N)ccc12 [Example 126, N5-(3-(3,3-dimethylbut-1-yn-1-yl)phenyl)-N5-methylpyrido[3,2-e][1,2,4]triazolo[4,3-a]pyrimidine-2,5-diamine]",21.4 nM,3.15 nM
